Values quoted from earlier work in patent US20130345296A1, “Compositions Comprising a Taxane for Coating Medical Devices” (AVIDAL VASCULAR GMBH, priority 2010, published 2013).

Tests used:
microtubules = conditions: in vitro studies; Rowinsky et al. (1990)
[1] = system: leukemia, colon, breast, melanoma, sarcomas, and Lewis lung tumor systems; conditions: Tarr et al. (1987); Horwitz (1992)

CC(=O)O[C@H]1C(=O)[C@@]2(C)[C@H]([C@H](OC(=O)c3ccccc3)[C@]3(O)C[C@H](OC(=O)[C@H](O)[C@@H](NC(=O)c4ccccc4)c4ccccc4)C(C)=C1C3(C)C)[C@]1(OC(C)=O)CO[C@@H]1C[C@@H]2O [taxol, paclitaxel]
concentrations of taxol that stabilize microtubules (microtubules): 0.1 to 10.0 µg/mL | activity against tumor systems [1]: active
